biological target: T1, b-Raf (Homo sapiens, UniProt P15056, V600E); experiment: Raf cellular assay (phospho-Mek1/2 ELISA in A2058 cells); assay type: cell-based; details: Table 3; human melanoma A2058 cells (b-Raf mutation), Mek1/2 Ser217/221 phosphorylation, 1 hour incubation; read-out: pMEK IC50
T1 construct: endogenous in cells; host or cells: A2058 human melanoma cells
Experimental: Compounds of the present invention were evaluated for potency against b-Raf using a cellular assay as follows. The activity of Raf kinases in cells is determined by measuring the level of phosphorylation of Mek1/2 at serine 217/221, the site phosphorylated by Raf kinases in vivo. Mek1/2 Ser phosphorylation is measured using anti-phospho-Mek1/2 antibodies (Cell Signaling #9121) in an ELISA format.
Healthy growing human melanoma A2058 cells (harboring a b-Raf mutation) are used for the assay. A2058 cells are grown in 10% FBS DMEM medium. When the cells are near 85%+confluence, the cells are rinsed with PBS once and trypsinized with trypsin/EDTA for 3 minutes. The cells are resuspended in 10% FBS DMEM and are centrifuged down at 1000 rpm for 5 minutes. The cells are resuspended in 10% FBS DMEM and counted on a cell counter. The cells are seeded at 50,000 cells/well in a volume of 100 μL/well in 10% FBS DMEM in a 96 well flat-bottom plate. The negative control wells receive only 100 μL of 10% FBS DMEM medium without cells. The plate is incubated overnight in a cell culture incubator with 5% CO2 at 37° C.
On day 2, testing compounds are prepared in 10% FBS DMEM medium and serially diluted at 1:3 for 11 test concentrations. Each concentration of the compounds is tested in duplicate. The compound solutions are added at 25 μL/well to the corresponding wells in the cell plate, and 25 μL/well of the vehicle (0.5% DMSO in 10% FBS DMEM) is added to the negative control wells (no cells) and the positive control wells (cells without compounds). The plate is incubated for 1 hour in a cell culture incubator with 5% CO2 at 37° C. After 1 hour of incubation, the medium is removed, 100 μL/well of cell lysis buffer is added into the cell plate, and the plate is shaken for 15 minutes at room temperature. After 15 minutes, the cell lysates are transferred to an ELISA plate (pre-coated with anti-Mek1 anti-body, Cell Signaling #2352), and the plate is incubated with gentle shaking for 2 hours at room temperature. After 2 hours, the contents of the wells are aspirated and the wells are washed 4 times with wash buffer. 100 μL of phospho-Mek1/2 detection antibody (Cell Signaling #9121) is added into each well and the plate is incubated with gentle shaking for 1 hour at room temperature. After 1 hour, the wells are aspirated and washed 4 times with wash buffer. 100 μL of anti-rabbit IgG HRP-linked antibody (Cell Signaling #7074) is added to each well, and the plate is incubated with gentle shaking for 1 hour at room temperature. After 1 hour, the contents of the wells are aspirated and the wells are washed 4 times with wash buffer. 100 μL of TMB substrate solution (Sigma #T0440) is added into each well, and the plate is incubated with gentle shaking at room temperature for 10 to 20 minutes. After color development, 100 μL of stop solution (1N hydrochloric acid) is added to each well to terminate color development. The plate is read at 450 nm on an ELISA plate reader.

T1 sequence (P15056 whole entry V600E): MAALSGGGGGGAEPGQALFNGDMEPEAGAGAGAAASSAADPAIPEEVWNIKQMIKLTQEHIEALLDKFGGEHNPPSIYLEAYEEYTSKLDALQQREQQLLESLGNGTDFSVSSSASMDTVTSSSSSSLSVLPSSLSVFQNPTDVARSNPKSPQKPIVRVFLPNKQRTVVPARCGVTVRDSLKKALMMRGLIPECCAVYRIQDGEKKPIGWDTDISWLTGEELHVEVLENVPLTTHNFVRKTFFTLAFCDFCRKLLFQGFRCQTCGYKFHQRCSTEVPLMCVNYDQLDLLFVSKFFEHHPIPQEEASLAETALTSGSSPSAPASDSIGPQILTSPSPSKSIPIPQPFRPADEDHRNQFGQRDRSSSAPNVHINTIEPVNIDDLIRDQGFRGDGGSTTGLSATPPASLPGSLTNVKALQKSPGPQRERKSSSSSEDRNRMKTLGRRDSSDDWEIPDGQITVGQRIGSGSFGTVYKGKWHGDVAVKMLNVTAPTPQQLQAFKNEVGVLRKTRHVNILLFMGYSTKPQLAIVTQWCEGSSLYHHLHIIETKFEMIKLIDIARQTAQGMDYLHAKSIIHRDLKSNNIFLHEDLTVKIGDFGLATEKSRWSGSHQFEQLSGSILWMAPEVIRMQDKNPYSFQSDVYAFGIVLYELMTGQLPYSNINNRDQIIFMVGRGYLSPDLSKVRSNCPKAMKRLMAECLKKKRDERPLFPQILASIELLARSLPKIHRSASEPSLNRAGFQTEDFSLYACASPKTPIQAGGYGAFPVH

| Compound | IC50 [nM] |
| --- | --- |
| Cc1n[nH]c2ncc(-c3nn(CC(F)F)cc3-c3ccnc(NCCC#N)n3)cc12 [Example B-91, 3-(4-(1-(2,2-difluoroethyl)-3-(3-methyl-1H-pyrazolo[3,4-b]pyridin-5-yl)-1H-pyrazol-4-yl)pyrimidin-2-ylamino)propanenitrile] | 4.94 |
| COc1cc(-c2nn(C3CCOCC3)cc2-c2ccnc(NCCC#N)n2)cnc1N [Example B-69, 3-({4-[3-(6-amino-5-methoxypyridin-3-yl)-1-(tetrahydro-2H-pyran-4-yl)-1H-pyrazol-4-yl]pyrimidin-2-yl}amino)propanenitrile] | 2.98 |
| C[C@H](O)CNc1nccc(-c2cn(CC3(C)COC3)nc2-c2cnc3[nH]cc(Cl)c3c2)n1 [Example B-98, (2S)-1-[(4-{3-(3-chloro-1H-pyrrolo[2,3-b]pyridin-5-yl)-1-[(3-methyloxetan-3-yl)methyl]-1H-pyrazol-4-yl}pyrimidin-2-yl)amino]propan-2-ol] | 146 |
| Cc1c[nH]c2ncc(-c3nn(CC(F)F)cc3-c3ccnc(NC[C@H](C)O)n3)cc12 [Example B-100, (2S)-1-({4-[1-(2,2-difluoroethyl)-3-(3-methyl-1H-pyrrolo[2,3-b]pyridin-5-yl)-1H-pyrazol-4-yl]pyrimidin-2-yl}amino)propan-2-ol] | 4.29 |
| CC(C)(CO)n1cc(-c2ccnc(NCCC#N)n2)c(-c2cnc3[nH]cc(Cl)c3c2)n1 [Example E-5, 3-({4-[3-(3-chloro-1H-pyrrolo[2,3-b]pyridin-5-yl)-1-(2-hydroxy-1,1-dimethylethyl)-1H-pyrazol-4-yl]pyrimidin-2-yl}amino)-propanenitrile] | 0.836 |
| COc1nc(-c2nn(CC(F)F)cc2-c2ccnc(NCCC#N)n2)cnc1N [Example B-32, 3-({4-[3-(5-amino-6-methoxypyrazin-2-yl)-1-(2,2-difluoroethyl)-1H-pyrazol-4-yl]pyrimidin-2-yl}amino)propanenitrile] | 1 |
| COc1cc(-c2n[nH]cc2-c2ccnc(NCC(F)F)n2)cnc1N [Example B-68, 4-[3-(6-amino-5-methoxypyridin-3-yl)-1H-pyrazol-4-yl]-N-(2,2-difluoroethyl)-pyrimidin-2-amine] | 25.6 |
| CC(C)n1cc(-c2ccnc(NC[C@H](C)O)n2)c(-c2cnc(N)c(OC(F)F)c2)n1 [Example B-39, (2S)-1-[(4-{3-[6-amino-5-(difluoromethoxy)-pyridin-3-yl]-1-isopropyl-1H-pyrazol-4-yl}pyrimidin-2-yl)amino]propan-2-ol] | 87.8 |
| COc1cc(-c2nn(-c3ccc(C#N)cc3)cc2-c2ccnc(NCCO)n2)cnc1N [Example B-80, 4-[3-(6-amino-5-methoxypyridin-3-yl)-4-{2-[(2-hydroxyethyl)-amino]pyrimidin-4-yl}-1H-pyrazol-1-yl]-benzonitrile] | 95.3 |
| C[C@H](O)CNc1nccc(-c2cn(C3CCOCC3)nc2-c2cnc3[nH]cc(Cl)c3c2)n1 [Example B-76, (2S)-1-({4-[3-(3-chloro-1H-pyrrolo[2,3-b]pyridin-5-yl)-1-(tetrahydro-2H-pyran-4-yl)-1H-pyrazol-4-yl]pyrimidin-2-yl}amino)propan-2-ol] | 12 |
| CC(C)(CO)n1cc(-c2ccnc(N)n2)c(-c2cnc3[nH]cc(Cl)c3c2)n1 [Example E-6, 2-[4-(2-amino-pyrimidin-4-yl)-3-(3-chloro-1H-pyrrolo[2,3-b]pyridin-5-yl)-1H-pyrazol-1-yl]-2-methylpropan-1-ol] | 8.98 |
| CC(C)n1cc(-c2ccnc(NC[C@H](C)O)n2)c(-c2cnc(N)nc2)n1 [Example B-42, (2S)-1-({4-[3-(2-aminopyrimidin-5-yl)-1-isopropyl-1H-pyrazol-4-yl]pyrimidin-2-yl}amino)propan-2-ol] | 5650 |
| Cc1c[nH]c2ncc(-c3nn(C(C)(C)CO)cc3-c3ccnc(NCCC#N)n3)cc12 [Example B-23, 3-({4-[1-(2-hydroxy-1,1-dimethylethyl)-3-(3-methyl-1H-pyrrolo[2,3-b]pyridin-5-yl)-1H-pyrazol-4-yl]pyrimidin-2-yl}amino)propanenitrile] | 0.428 |
| CC(C)n1cc(-c2ccnc(N)n2)c(-c2cnc3[nH]cc(Cl)c3c2)n1 [Example B-60, 4-[3-(3-chloro-1H-pyrrolo[2,3-b]pyridin-5-yl)-1-isopropyl-1H-pyrazol-4-yl]pyrimidin-2-amine] | 44 |
| Cc1c[nH]c2ncc(-c3nn(C(F)F)cc3-c3ccnc(NCCC#N)n3)cc12 [Example B-44, 3-({4-[1-(difluoromethyl)-3-(3-methyl-1H-pyrrolo[2,3-b]pyridin-5-yl)-1H-pyrazol-4-yl]pyrimidin-2-yl}amino)-propanenitrile] | 1.37 |
| Cc1ccc(-c2nn(CC(F)F)cc2-c2ccnc(NCCC#N)n2)cn1 [Example B-28, 3-({4-[1-(2,2-difluoroethyl)-3-(6-methylpyridin-3-yl)-1H-pyrazol-4-yl]pyrimidin-2-yl}amino)propanenitrile] | 538 |
| Cc1n[nH]c2ncc(-c3nn(C(C)(C)CO)cc3-c3ccnc(NCCC#N)n3)cc12 [Example B-94, 3-(4-(1-(1-hydroxy-2-methylpropan-2-yl)-3-(3-methyl-1H-pyrazolo[3,4-b]pyridin-5-yl)-1H-pyrazol-4-yl)pyrimidin-2-ylamino)propanenitrile] | 13.3 |
| COc1nc(-c2nn(C(C)C)cc2-c2ccnc(NCCC#N)n2)cnc1N [Example B-31, 3-({4-[3-(5-amino-6-methoxypyrazin-2-yl)-1-isopropyl-1H-pyrazol-4-yl]pyrimidin-2-yl}amino)propanenitrile] | 0.5 |
| COc1cncc(-c2nn(CC(F)F)cc2-c2ccnc(NCCC#N)n2)c1 [Example B-46, 3-({4-[1-(2,2-difluoroethyl)-3-(5-methoxypyridin-3-yl)-1H-pyrazol-4-yl]pyrimidin-2-yl}amino)propanenitrile] | 16 |
| CC(C)n1cc(-c2ccnc(NCCC#N)n2)c(-c2cccnc2)n1 [Example B-53, 3-{[4-(1-isopropyl-3-pyridin-3-yl-1H-pyrazol-4-yl)pyrimidin-2-yl]amino}-propanenitrile] | 1320 |
| Cc1n[nH]c2ncc(-c3nn(C(C)(C)C)cc3-c3ccnc(NCCC#N)n3)cc12 [Example B-71, 3-({4-[1-tert-butyl-3-(3-methyl-1H-pyrazolo[3,4-b]pyridin-5-yl)-1H-pyrazol-4-yl]pyrimidin-2-yl}amino)propanenitrile] | 2.8 |
| COc1cc(-c2nn(C(F)F)cc2-c2ccnc(NC[C@H](C)O)n2)cnc1N [Example B-41, (2S)-1-({4-[3-(6-amino-5-methoxypyridin-3-yl)-1-(difluoromethyl)-1H-pyrazol-4-yl]pyrimidin-2-yl}amino)propan-2-ol] | 78.5 |
| Cc1cc(-c2nn(CC(F)F)cc2-c2ccnc(NCCC#N)n2)cnc1N [Example G-7, 3-(4-(3-(6-amino-5-methylpyridin-3-yl)-1-(2,2-difluoroethyl)-1H-pyrazol-4-yl)pyrimidin-2-ylamino)-propanenitrile] | 28.5 |
| CC(C)n1cc(-c2ccnc(N)c2)c(-c2cnc3[nH]cc(Cl)c3c2)n1 [Example H-1, 4-(3-(3-chloro-1H-pyrrolo[2,3-b]pyridin-5-yl)-1-isopropyl-1H-pyrazol-4-yl)pyridin-2-amine] | 26 |
| FC(F)CNc1nccc(-c2cn(CC(F)F)nc2-c2cnc3c(c2)CCN3)n1 [Example B-90, N-(2,2-difluoroethyl)-4-(1-(2,2-difluoroethyl)-3-(2,3-dihydro-1H-pyrrolo[2,3-b]pyridin-5-yl)-1H-pyrazol-4-yl)pyrimidin-2-amine] | 43.4 |
| CC(=O)N1CCC(n2cc(-c3ccnc(NCC(F)F)n3)c(-c3cnc4[nH]cc(Cl)c4c3)n2)CC1 [Example B-67, 4-[1-(1-acetylpiperidin-4-yl)-3-(3-chloro-1H-pyrrolo[2,3-b]pyridin-5-yl)-1H-pyrazol-4-yl]-N-(2,2-difluoroethyl)-pyrimidin-2-amine] | 9.2 |
| CC(C)n1cc(-c2ccncn2)c(-c2cnc3[nH]cc(Cl)c3c2)n1 [Example F-1, 3-chloro-5-(1-isopropyl-4-(pyrimidin-4-yl)-1H-pyrazol-3-yl)-1H-pyrrolo[2,3-b]pyridine] | 49.9 |
